Legend:
Assay type in all cases: physicochemical
[1] = Discoloration of hydroquinone solutions with stabilizer in various solvents after storage; conditions: hydroquinone solutions in various solvents (ethanol absolute, 40-B, 40-2, 3A), glass vials, four weeks at 45° C., FIGS. 2A-D
Description: FIGS. 2A-D are photographs of containers of various compositions, each comprising 0.1% benzophenone-4 in 100 ml of various solvents, after storage for four weeks at 45° C. In another set of experiments, solutions containing […] in various solvents (as shown below) were prepared, and then stored in glass vials for four weeks at 45° C.

[2] = Discoloration of compositions associated with oxidation of hydroquinone (general statement); conditions: compositions containing hydroquinone
[3] = Discoloration of 1% hydroquinone solutions in SDA 40-2 ethanol with 0.1% stabilizer after storage; conditions: hydroquinone 1% w/w in 200-proof ethanol SDA grade 40-2, 0.1% w/w stabilizer, glass vials, 4 weeks at 45° C., FIG. 1
Description: FIG. 1 is a photograph of containers of various compositions, each comprising 1% hydroquinone, 0.1% of various stabilizers, in a vehicle of SDA grade 40-2 ethanol. Solutions of hydroquinone (1% w/w), in 200-proof ethanol (SDA grade 40-2, which includes brucine sulfate as a denaturant) with 0.1% w/w of various compounds, namely BHT, benzophenone-3, ascorbic acid, Tinogard HS, Tinogard TT, Tinogard Q, benzophenone-4, Tinogard TT DD and ascorbyl glucoside were prepared, and then stored in glass vials for 4 weeks at 45° C. The results of the experiments are illustrated in FIG. 1.

Structure (SMILES)	discoloration of the solutions [1]	discoloration of compositions associated with oxidation of hydroquinone [2]	discoloration of the solution [3]
CC1(C)C2CCC1(CS(=O)(=O)O)C(=O)/C2=C/c1ccc(/C=C2/C(=O)C3(CS(=O)(=O)O)CCC2C3(C)C)cc1 [Mexoryl SX, tetraphthalylidene dicamphor sulfonic acid]	substantially no discoloration	inhibit or reduce discoloration	–
COc1cc(O)c(C(=O)c2ccccc2)cc1S(=O)(=O)O [benzophenone-4, 5-Benzoyl-4-Hydroxy-2-Methoxybenzene Sulfonic Acid]	substantially no discoloration	inhibit or reduce discoloration	substantially no discoloration

Source: patent US20070025939A1, “cosmetic compositions containing hydroquinone and various sunscreen agents” (L'Oreal S.A., priority 2005, published 2007)
